This passage reports inhibition results from patent EP3212201B1, “NUCLEOSIDE KINASE INHIBITORS” (BCI Pharma, priority 2014, dated 2016).

What all share (assay): FRET-based coupled-enzyme protein kinase inhibition assay
Common to all, as to type: biochemical
What all share (details): compound at 10 µM, 1% DMSO

In assay [1] the target is FGFR1 (Homo sapiens, UniProt P11362). In outline: (§1)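 FRET peptide (coumarin donor, fluorescein acceptor) was phosphorylated by each kinase in 50 mM HEPES pH 7.5, 10 mM MgCl2, 1 mM EDTA, 0.01% BRIJ-35 for 60 min at room temperature. ATP was at apparent Km, compounds in 1% DMSO. Protease development reagent then cleaved non-phosphorylated peptide over 60 min.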
Chain of FGFR1 (P11362 22-822, species assumed): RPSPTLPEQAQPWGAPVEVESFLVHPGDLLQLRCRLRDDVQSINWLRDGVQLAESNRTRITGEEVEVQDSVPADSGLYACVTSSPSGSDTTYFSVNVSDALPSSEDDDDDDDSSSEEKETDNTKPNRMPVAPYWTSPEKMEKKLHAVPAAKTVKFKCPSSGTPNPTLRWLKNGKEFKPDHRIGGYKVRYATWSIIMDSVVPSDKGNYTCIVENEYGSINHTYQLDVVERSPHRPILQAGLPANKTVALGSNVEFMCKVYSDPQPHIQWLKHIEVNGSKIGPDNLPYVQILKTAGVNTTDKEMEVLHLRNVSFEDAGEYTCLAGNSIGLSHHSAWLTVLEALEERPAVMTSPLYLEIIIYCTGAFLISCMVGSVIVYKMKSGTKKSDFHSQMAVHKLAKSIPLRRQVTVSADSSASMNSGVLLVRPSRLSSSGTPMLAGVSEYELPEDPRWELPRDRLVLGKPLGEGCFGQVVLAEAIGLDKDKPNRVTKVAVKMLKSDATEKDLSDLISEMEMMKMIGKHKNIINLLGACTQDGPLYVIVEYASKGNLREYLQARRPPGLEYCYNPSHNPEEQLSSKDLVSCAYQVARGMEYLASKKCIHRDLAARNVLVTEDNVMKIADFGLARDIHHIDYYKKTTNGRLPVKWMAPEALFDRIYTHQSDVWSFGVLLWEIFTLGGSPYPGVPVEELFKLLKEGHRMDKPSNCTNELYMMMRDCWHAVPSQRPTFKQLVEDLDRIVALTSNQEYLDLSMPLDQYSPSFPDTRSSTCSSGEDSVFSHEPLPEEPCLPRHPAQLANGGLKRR
In assay [2] the target is PLK1 (Homo sapiens, UniProt P53350). In outline:
as §1

Assay [3] has as its target EPHA2 (Homo sapiens, UniProt P29317). In outline: as §1

Structures are written as SMILES.

Chain of EPHA2 (P29317 24-976, species assumed): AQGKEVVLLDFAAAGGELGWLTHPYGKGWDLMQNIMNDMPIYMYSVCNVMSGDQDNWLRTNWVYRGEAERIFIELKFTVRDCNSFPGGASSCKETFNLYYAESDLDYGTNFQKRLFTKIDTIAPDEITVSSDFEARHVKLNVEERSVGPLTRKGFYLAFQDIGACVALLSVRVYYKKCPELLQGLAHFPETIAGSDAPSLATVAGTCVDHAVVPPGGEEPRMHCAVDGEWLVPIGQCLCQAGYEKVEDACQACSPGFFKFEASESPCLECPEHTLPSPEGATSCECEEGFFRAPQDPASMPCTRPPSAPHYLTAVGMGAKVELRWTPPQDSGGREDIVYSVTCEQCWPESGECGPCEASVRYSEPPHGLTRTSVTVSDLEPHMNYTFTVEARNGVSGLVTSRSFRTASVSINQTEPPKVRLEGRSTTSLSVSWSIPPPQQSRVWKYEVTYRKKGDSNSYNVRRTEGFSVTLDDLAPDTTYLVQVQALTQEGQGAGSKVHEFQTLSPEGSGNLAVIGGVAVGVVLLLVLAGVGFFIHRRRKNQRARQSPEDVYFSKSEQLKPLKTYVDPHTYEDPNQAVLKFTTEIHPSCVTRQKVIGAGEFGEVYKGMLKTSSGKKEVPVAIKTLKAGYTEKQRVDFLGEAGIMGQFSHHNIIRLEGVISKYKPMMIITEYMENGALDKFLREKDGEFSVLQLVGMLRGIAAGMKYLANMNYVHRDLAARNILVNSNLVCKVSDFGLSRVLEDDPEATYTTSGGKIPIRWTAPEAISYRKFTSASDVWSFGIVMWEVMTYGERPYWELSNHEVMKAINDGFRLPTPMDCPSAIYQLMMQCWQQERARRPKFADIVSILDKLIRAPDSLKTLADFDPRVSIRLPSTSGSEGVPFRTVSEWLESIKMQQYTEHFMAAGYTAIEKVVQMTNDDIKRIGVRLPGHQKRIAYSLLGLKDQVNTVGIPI
Chain of PLK1 (P53350 whole entry, species assumed): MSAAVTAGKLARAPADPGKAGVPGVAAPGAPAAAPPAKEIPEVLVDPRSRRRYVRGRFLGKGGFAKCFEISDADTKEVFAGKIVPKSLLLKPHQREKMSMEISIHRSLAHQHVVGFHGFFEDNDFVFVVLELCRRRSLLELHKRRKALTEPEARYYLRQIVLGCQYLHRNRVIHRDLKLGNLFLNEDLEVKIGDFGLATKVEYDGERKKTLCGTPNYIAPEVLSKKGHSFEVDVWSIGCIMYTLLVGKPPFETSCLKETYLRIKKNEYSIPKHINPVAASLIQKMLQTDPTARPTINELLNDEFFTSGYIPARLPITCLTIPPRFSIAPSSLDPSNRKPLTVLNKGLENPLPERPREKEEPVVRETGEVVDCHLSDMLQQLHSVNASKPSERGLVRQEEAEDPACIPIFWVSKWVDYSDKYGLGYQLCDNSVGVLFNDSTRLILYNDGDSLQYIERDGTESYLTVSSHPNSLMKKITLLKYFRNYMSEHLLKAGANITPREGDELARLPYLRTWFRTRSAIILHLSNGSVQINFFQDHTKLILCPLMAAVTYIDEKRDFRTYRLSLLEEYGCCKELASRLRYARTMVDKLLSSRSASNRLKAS

For `Nc1ncnc2c1ncn2[C@@H]1O[C@H](COC(=O)N2CCN(C(=O)N3CCOCC3)CC2)[C@@H](O)[C@H]1O` [Compound C89], the inhibition at 10 µM is 16% in assay [1], -10% in assay [2] and 6% in assay [3].

`Nc1ncnc2c1ncn2[C@@H]1O[C@H](COC(=O)N2CCC(Cc3ccc(F)cc3)C2)[C@@H](O)[C@H]1O` (stereo partly drawn) [Compound C66]: the inhibition at 10 µM in assay [1] is 13%; in assay [2], -5%; in assay [3] it was 9%.

Consider `Nc1ncnc2c1ncn2[C@@H]1O[C@H](COC(=O)N2CCN(CCc3ccccc3)CC2)[C@@H](O)[C@H]1O` [Compound C26], for which the figures for the inhibition at 10 µM in assay [1], in assay [2] and in assay [3] were 9%, -8% and -1%, respectively.

For the compound `CN1CCN(CCNC(=O)OC[C@H]2O[C@@H](n3cnc4c(N)ncnc43)[C@H](O)[C@@H]2O)CC1` [Compound C46], the inhibition at 10 µM is 9% in assay [1], -5% in assay [2] and 3% in assay [3].

For the compound `CC(C)N1CCC(NC(=O)OC[C@H]2O[C@@H](n3cnc4c(N)ncnc43)[C@H](O)[C@@H]2O)CC1` [Compound C19], the inhibition at 10 µM in assay [1] was 6%; in assay [2], -6%; in assay [3] it was 7%.

With `Nc1ncnc2c1ncn2[C@@H]1O[C@H](COC(=O)NCCCc2nc3ccccc3[nH]2)[C@@H](O)[C@H]1O` [Compound C1], the inhibition at 10 µM in assay [1] was 21%; in assay [2], -8%; in assay [3], 8%.

In the case of `CN(C)CCNC(=O)OC[C@H]1O[C@@H](n2cnc3c(N)ncnc32)[C@H](O)[C@@H]1O` [Compound C85], the results for the inhibition at 10 µM in assay [1], in assay [2] and in assay [3] were 4%, -3% and 4%, respectively.

For the compound `CS(=O)(=O)N1CC2(CCN(C(=O)OC[C@H]3O[C@@H](n4cnc5c(N)ncnc54)[C@H](O)[C@@H]3O)CC2)c2ccccc21` [Compound C98], the inhibition at 10 µM was 9% in assay [1], -7% in assay [2] and 5% in assay [3].

`Nc1ncnc2c1ncn2[C@@H]1O[C@H](COC(=O)NC[C@H](O)CO)[C@@H](O)[C@H]1O` [Compound C8]: the inhibition at 10 µM in assay [1] was 26%; in assay [2], -1%; in assay [3] it was 12%.

Take `Nc1ncnc2c1ncn2[C@@H]1O[C@H](COC(=O)N2CCN(Cc3ccccc3)CC2CO)[C@@H](O)[C@H]1O` (stereo partly drawn) [Compound C13]: the inhibition at 10 µM was 5% in assay [1], -12% in assay [2] and 3% in assay [3].

In the case of `Nc1ncnc2c1ncn2[C@@H]1O[C@H](COC(=O)N2CCC[C@H]2CO)[C@@H](O)[C@H]1O` [Compound C9], the inhibition at 10 µM in assay [1] is 3%; in assay [2] it was -1%; in assay [3], 5%.

For `Nc1ncnc2c1ncn2[C@@H]1O[C@H](COC(=O)NCCN2CCCC2=O)[C@@H](O)[C@H]1O` [Compound C22], the values for the inhibition at 10 µM in assay [1], in assay [2] and in assay [3] were 0%, -5% and 1%, respectively.

Turning to `C[C@@H](NC(=O)OC[C@H]1O[C@@H](n2cnc3c(N)ncnc32)[C@H](O)[C@@H]1O)c1ccc(Cl)cc1` [Compound C4], the inhibition at 10 µM in assay [1] was 6%; in assay [2], -3%; in assay [3], 4%.

As for `Nc1ncnc2c1ncn2[C@@H]1O[C@H](COC(=O)N[C@@H]2CCN(Cc3ccccc3)C2)[C@@H](O)[C@H]1O` [Compound C10], the inhibition at 10 µM in assay [1] was 20%; in assay [2], -13%; in assay [3] it was 9%.

On to `N#CCCN1CCN(C(=O)OC[C@H]2O[C@@H](n3cnc4c(N)ncnc43)[C@H](O)[C@@H]2O)CC1` [Compound C70], for which the results for the inhibition at 10 µM in assay [1], in assay [2] and in assay [3] were 1%, 0% and 4%, respectively.

On to `Nc1ncnc2c1ncn2[C@@H]1O[C@H](COC(=O)N2CCS(=O)(=O)CC2)[C@@H](O)[C@H]1O` [Compound C100], for which the inhibition at 10 µM in assay [1] is 0%; in assay [2], -11%; in assay [3], 4%.

Usually inhibition stands for the drop in the measured response relative to a control, in per cent.
